Reference: US11478493B2, “Fabrication and application of a hetero-targeted nano-cocktail with traceless linkers” (priority 2019, dated 2022)

Tested on: SKOV-3 cells
Assay: Cytotoxicity assay (MTT) against SKOV-3 cells
Format: cell-based, Human
Conditions: SKOV-3, 72 hours
Description: Human ovarian cancer cells, SKOV-3 and SKOV-3/Luc cells, were cultured in GIBCO™ DMEM supplemented with 10% FBS, 100 units/mL penicillin, and 100 μg/mL streptomycin at 37° C. in […] culture flasks under a humidified atmosphere of 5% CO2. Cells were sub-cultured when the cell confluence reached ˜80%.
The anticancer activities of polymer nanogels against SKOV-3 cells were evaluated by MTT assay. Cells were seeded in 96-well plates at a density of 5,000 cells/well for 24 hours prior to the test at 37° C. with 5% CO2. Then the cells were treated with varying concentrations of PTX/DOX or polymer nanogels in fresh medium and further incubated for 72 hours. In the control group, cells were allowed to grow without any treatment. After that, the medium was replaced with 100 μL fresh medium containing MTT reagent (final concentration 1 mg/mL) and cells were further incubated for 4 hours. The purple MTT crystal was dissolved with 100 μL MTT stop solution and the optical density at 595 nm was recorded on a microplate reader (ELx808™ Absorbance Microplace Reader, Bio-Tech Instrument, Inc.).

Compound | IC50 (DOX, PPD and PPDA nanogels) | IC50 (Homo sapiens, SK-OV-3, PTX, PPP and PPPM nanogels)
COc1cccc2c1C(=O)c1c(O)c3c(c(O)c1C2=O)C[C@@](O)(C(=O)CO)C[C@@H]3O[C@H]1C[C@H](N)[C@H](O)[C@H](C)O1 [DOX, doxorubicin] | 582 nM | –
CC(=O)O[C@H]1C(=O)[C@@]2(C)[C@H]([C@H](OC(=O)c3ccccc3)[C@]3(O)C[C@H](OC(=O)[C@H](O)[C@@H](NC(=O)c4ccccc4)c4ccccc4)C(C)=C1C3(C)C)[C@]1(OC(C)=O)CO[C@@H]1C[C@@H]2O [PTX, paclitaxel] | – | 30.6 nM
